Data taken from ChEMBL document CHEMBL1135889, “Novel 4-anilinoquinazolines with C-7 basic side chains: design and structure activity relationship of a series of potent, orally active, VEGF receptor tyrosine kinase inhibitors” (J Med Chem, 2002).
In brackets after ≈: the same amount, converted by molar mass.

Legend:
[1] = target: Vascular endothelial growth factor receptor 1 (Homo sapiens, UniProt P17948); experiment: Inhibition of fms-like tyrosine kinase receptor (Flt-1) kinase activity […] of ATP
Sequence of Vascular endothelial growth factor receptor 1 (P17948 whole entry): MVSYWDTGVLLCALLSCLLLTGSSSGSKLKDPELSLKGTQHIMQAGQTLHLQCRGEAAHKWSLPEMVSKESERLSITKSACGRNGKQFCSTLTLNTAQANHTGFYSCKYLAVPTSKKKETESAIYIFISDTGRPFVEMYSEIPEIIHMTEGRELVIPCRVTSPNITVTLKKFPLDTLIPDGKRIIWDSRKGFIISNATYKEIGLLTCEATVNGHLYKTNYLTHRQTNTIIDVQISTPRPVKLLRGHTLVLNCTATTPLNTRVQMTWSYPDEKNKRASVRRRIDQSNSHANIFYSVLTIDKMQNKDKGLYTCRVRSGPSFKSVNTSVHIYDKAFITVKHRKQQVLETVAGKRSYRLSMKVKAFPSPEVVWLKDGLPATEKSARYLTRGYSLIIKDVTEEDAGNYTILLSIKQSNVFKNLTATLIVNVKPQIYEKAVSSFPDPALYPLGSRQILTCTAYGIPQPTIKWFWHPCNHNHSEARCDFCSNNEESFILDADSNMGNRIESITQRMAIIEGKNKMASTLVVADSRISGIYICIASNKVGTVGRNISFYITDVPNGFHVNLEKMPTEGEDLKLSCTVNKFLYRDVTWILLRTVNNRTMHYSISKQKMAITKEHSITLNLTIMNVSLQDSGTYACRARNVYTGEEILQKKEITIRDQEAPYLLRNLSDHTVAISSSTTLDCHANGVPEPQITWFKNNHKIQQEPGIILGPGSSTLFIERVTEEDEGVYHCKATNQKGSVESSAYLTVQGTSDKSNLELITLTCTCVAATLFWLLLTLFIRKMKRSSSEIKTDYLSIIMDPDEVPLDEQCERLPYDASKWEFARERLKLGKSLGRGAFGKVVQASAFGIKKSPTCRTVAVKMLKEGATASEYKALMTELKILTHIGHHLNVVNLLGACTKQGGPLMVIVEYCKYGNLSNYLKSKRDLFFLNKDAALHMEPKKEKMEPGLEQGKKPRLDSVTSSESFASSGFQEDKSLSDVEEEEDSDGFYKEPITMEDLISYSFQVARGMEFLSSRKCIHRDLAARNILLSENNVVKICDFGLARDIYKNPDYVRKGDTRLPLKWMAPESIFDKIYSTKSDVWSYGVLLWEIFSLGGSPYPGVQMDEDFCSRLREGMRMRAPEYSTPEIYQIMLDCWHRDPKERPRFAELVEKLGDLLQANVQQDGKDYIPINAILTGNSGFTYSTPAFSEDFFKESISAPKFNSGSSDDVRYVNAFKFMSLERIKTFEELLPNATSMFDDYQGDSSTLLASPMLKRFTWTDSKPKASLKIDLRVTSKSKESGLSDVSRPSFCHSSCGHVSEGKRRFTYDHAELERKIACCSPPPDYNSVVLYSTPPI

HUVEC = experiment: Inhibition of basal unstimulated growth of human endothelial cell; assay type: functional, cell-based
[2] = target: Vascular endothelial growth factor receptor (Homo sapiens, UniProt P17948+P35916+P35968); experiment: Inhibition of human endothelial cell growth stimulate by vascular endothelial growth factor
[3] = target: Vascular endothelial growth factor receptor 2 (Homo sapiens, UniProt P35968); experiment: Inhibition of vascular endothelial growth factor receptor 2 kinase activity […]
Sequence of Vascular endothelial growth factor receptor 2 (P35968 whole entry): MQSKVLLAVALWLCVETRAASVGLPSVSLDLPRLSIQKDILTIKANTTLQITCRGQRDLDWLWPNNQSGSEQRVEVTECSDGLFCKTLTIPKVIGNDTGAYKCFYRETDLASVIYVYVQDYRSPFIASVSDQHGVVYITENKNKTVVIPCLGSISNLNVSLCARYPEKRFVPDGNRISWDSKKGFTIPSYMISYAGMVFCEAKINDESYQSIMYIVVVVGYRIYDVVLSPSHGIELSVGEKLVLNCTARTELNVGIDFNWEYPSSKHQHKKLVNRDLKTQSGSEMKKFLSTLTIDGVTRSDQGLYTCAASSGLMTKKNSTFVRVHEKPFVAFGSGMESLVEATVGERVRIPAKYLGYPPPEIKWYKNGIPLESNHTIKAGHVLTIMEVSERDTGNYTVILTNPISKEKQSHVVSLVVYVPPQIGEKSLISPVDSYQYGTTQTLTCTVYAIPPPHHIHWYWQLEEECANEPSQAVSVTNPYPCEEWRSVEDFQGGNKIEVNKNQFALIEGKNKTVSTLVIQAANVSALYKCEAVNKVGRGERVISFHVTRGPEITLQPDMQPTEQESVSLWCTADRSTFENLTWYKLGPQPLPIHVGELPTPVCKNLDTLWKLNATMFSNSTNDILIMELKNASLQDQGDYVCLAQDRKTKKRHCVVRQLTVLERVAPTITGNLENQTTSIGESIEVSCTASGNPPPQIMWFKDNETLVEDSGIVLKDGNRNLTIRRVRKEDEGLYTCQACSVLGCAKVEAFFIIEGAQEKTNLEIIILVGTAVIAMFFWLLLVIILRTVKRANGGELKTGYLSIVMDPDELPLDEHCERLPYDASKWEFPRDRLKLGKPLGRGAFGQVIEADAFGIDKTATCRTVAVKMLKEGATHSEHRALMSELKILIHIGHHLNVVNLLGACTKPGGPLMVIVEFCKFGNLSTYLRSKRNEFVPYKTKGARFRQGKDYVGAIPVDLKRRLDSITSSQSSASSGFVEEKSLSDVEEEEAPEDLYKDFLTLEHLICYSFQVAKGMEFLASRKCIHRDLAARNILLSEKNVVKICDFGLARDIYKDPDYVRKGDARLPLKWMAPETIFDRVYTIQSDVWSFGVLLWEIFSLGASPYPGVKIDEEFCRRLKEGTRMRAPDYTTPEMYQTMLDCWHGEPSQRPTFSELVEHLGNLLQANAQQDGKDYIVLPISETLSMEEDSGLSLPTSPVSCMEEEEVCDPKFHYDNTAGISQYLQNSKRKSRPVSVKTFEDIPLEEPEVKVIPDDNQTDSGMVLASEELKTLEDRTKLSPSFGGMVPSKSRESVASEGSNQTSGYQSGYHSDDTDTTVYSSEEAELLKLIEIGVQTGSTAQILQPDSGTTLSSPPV

[4] = target: Fibroblast growth factor receptor 1 (Homo sapiens, UniProt P11362)
Sequence of Fibroblast growth factor receptor 1 (P11362 whole entry): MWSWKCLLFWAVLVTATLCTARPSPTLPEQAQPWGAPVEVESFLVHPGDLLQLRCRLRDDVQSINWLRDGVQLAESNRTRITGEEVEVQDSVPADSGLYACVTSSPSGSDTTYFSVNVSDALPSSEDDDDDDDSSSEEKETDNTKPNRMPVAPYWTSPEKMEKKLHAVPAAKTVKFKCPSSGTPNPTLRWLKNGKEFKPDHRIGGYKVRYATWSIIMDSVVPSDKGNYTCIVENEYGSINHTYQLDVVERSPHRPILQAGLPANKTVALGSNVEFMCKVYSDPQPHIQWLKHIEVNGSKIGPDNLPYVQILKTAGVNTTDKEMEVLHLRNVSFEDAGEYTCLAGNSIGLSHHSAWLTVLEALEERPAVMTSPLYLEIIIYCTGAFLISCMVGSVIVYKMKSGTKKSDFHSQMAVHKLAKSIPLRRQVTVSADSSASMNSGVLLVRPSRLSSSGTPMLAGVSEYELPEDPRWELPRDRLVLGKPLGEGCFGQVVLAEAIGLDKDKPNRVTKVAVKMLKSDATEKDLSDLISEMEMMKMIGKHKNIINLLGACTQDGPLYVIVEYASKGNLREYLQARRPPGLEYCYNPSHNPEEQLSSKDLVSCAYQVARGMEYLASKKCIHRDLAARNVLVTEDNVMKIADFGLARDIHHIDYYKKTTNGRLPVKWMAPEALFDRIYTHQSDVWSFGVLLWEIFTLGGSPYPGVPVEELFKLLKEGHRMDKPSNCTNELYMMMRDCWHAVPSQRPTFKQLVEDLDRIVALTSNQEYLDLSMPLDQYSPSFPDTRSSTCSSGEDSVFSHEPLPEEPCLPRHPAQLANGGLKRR
Description: Inhibition fibroblast growth factor receptor TK kinase activity at a concentration of 2 uM

[5] = target: Epidermal growth factor receptor (Homo sapiens, UniProt P00533); experiment: Inhibition of epidermal growth factor receptor kinase activity […] of ATP
Sequence of Epidermal growth factor receptor (P00533 whole entry): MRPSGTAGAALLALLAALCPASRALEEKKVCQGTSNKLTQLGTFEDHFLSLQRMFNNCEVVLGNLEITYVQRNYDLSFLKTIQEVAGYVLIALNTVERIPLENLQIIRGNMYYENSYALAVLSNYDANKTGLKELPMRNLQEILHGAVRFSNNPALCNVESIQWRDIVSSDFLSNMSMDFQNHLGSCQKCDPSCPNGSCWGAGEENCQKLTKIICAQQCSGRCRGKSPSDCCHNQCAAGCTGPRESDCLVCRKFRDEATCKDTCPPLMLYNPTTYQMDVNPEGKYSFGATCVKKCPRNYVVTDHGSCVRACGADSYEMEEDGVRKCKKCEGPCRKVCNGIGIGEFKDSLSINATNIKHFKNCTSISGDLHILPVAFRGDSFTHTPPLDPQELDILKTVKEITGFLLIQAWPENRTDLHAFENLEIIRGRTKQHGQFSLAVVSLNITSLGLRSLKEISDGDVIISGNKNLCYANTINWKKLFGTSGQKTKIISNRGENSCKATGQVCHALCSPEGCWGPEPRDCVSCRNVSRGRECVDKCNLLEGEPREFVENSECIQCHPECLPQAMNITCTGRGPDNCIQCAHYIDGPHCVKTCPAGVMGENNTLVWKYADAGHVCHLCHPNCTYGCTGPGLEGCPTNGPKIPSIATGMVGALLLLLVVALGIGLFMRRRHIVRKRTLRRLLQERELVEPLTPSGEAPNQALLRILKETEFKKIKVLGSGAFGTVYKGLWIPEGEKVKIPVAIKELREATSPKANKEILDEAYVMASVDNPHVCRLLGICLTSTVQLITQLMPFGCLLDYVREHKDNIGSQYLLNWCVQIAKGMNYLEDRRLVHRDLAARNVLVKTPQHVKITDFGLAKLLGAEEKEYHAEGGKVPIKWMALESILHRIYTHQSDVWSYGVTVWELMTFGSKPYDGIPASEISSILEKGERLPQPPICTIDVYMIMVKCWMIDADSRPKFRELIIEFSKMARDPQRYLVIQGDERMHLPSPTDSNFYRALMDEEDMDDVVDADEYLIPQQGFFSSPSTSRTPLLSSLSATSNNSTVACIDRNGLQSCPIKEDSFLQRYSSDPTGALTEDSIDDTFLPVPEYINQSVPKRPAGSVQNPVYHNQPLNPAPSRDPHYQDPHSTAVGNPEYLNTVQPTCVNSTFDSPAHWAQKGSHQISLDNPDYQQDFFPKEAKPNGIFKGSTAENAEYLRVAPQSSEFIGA

[6] = Plasma levels following administration of 100 mg/Kg perorally and concentration in plasma 24 hr after administration; assay type: ADME, cell-free; settings: po, read-out: Plasma level
[7] = Plasma levels following administration of 100 mg/Kg perorally and concentration in plasma 6 hr after administration; assay type: ADME, cell-free; settings: po, read-out: Plasma level
[8] = solubility was determined using free base at pH 7; assay type: physicochemical; settings: buffer
physchem [9] = settings: octanol/water, pH 7.4
physchem [10] = settings: pH 7.4
[11] = Plasma levels following administration of 50 mg/Kg perorally and concentration in plasma 24 hr after administration; assay type: ADME, cell-free; settings: po, read-out: Plasma level
[12] = pKa value at a pH of […].value ranges from […]-[…].; assay type: physicochemical; settings: pH 7.4
[13] = Plasma levels following administration of 50 mg/Kg perorally and concentration in plasma 6 hr after administration; assay type: ADME, cell-free; settings: po, read-out: Plasma level
Mus musculus = species on record: Mus musculus; experiment: (§1) Binding affinity of serum protein in mouse.; assay type: functional, organism-based
Rattus norvegicus = species on record: Rattus norvegicus; experiment: (§2) Binding affinity to serum protein in rat; assay type: functional
[14] = Bioavailability in rat after oral dose at 50 mg/kg free base; assay type: ADME, organism-based; settings: in vivo
[15] = Plasma levels following administration of 50 mg/Kg perorally and concentration of compound in plasma 24 hr after administration; assay type: ADME, cell-free; settings: po, read-out: Plasma level
[16] = Pharmacokinetic parameters in dog, and clearance value reported after oral administration of 50 mg/Kg.; assay type: ADME, organism-based, Canis lupus familiaris; settings: in vivo
[17] = as §1; assay type: ADME, organism-based; settings: read-out: %Bound_Plasma (converted)
[18] = as §2; assay type: ADME, organism-based; settings: read-out: %Bound_Plasma (converted)
[19] = solubility was determined using free base at pH 7.4; assay type: physicochemical; settings: buffer
[20] = pKa value at a pH of […].; assay type: physicochemical; settings: pH 7.4
[21] = target: Cyclin-dependent kinase 2 (Homo sapiens, UniProt P24941); experiment: Inhibition of Cyclin-dependent kinase 2 (CDK2) at ATP concentration <Km
[22] = target: Receptor tyrosine-protein kinase erbB-2 (Homo sapiens, UniProt P04626); experiment: Inhibition of ERBB2 receptor kinase at ATP concentration <Km
[23] = target: Insulin-like growth factor 1 receptor (Homo sapiens, UniProt P08069); experiment: Inhibition of Insulin-like growth factor I receptor at ATP <Km
[24] = target: Dual specificity mitogen-activated protein kinase kinase; MEK1/2 (Homo sapiens, UniProt P36507+Q02750); experiment: Inhibition of Mitogen activated protein kinase (MEK) at ATP <Km; assay type: protein assay
[25] = target: Serine/threonine-protein kinase AKT (Homo sapiens, UniProt P31751+Q9Y243+P31749); experiment: Inhibition of Protein kinase B (AKT) at ATP <Km; assay type: protein assay
[26] = target: T1, 3-phosphoinositide-dependent protein kinase 1 (Homo sapiens, UniProt O15530); experiment: Inhibition of receptor kinase activity against PDK (phospho-inositide dependent kinase) at ATP <Km
T1 sequence (O15530 whole entry): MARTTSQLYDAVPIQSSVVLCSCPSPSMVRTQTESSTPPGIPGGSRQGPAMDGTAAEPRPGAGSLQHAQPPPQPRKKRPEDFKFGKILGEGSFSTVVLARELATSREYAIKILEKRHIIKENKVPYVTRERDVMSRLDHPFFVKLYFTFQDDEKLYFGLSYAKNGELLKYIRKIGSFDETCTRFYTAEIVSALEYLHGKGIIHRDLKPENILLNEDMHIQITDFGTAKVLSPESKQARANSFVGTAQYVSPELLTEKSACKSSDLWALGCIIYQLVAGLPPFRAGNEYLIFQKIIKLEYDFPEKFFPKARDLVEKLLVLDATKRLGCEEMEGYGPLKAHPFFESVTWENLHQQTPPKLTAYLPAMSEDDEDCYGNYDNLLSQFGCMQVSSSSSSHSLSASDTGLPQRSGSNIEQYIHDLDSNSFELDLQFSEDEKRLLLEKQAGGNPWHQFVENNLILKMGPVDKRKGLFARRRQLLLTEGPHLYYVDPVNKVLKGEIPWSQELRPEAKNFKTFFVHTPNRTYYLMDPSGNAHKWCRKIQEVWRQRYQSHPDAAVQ

Angiopoietin-1 receptor = Angiopoietin-1 receptor (Homo sapiens, UniProt Q02763); experiment: Inhibition of Tyrosine protein kinase TIE-2 at ATP <Km
[27] = Pharmacokinetic parameter bioavailability in dog was reported after oral administration of 30 mg/Kg measured on free base; settings: in vivo
[28] = Pharmacokinetic parameter half-life in dog was reported after intravenous administration of 5 mg/Kg measured on free base; settings: in vivo
[29] = Pharmacokinetic parameter half-life in rat was reported after intravenous administration of 5 mg/Kg measured on free base; settings: in vivo

Row | SMILES | IC50 [1] | IC50 [2] | IC50 [3] | IC50 [4] | IC50 [5] | IC50 (HUVEC) | also measured
1 | COc1cc2c(Nc3c(F)cc(Cl)cc3F)ncnc2cc1OCC1CCN(C)CC1 | – | – | 25 nM | 1700 nM | – | > 5000 nM | –
2 | COc1cc2c(Nc3ccc(Br)cc3F)ncnc2cc1OC[C@H]1CCCN(C)C1 | 500 nM | 40 nM | 10 nM | 5000 nM | – | 1000 nM | –
3 | COc1cc2c(Nc3ccc(Cl)cc3F)ncnc2cc1OCCCN1CCOCC1 | – | – | – | – | – | 2000 nM | concentration at 24 h [6]: 800 nM; concentration at 6 h [7]: 4000 nM; solubility [8]: 20 µM (≈ 8.94 µg/mL); logD (physchem [9]): 3.4; pKa (physchem [10]): 7.2
4 | COc1cc2c(Nc3cc(O)c(C)cc3F)ncnc2cc1OCC1CCN(C)CC1.Cl | 25 nM | 30 nM | 7 nM | 1500 nM | 300 nM | 800 nM | –
5 | COc1cc2c(Nc3c(F)cc(Cl)cc3F)ncnc2cc1OCC1CCNCC1 | 450 nM | 100 nM | 40 nM | 2500 nM | 500 nM | > 1000 nM | –
6 | COc1cc2c(Nc3ccc(Br)cc3F)ncnc2cc1OCCCN1CCN(C)CC1.Cl | 550 nM | 30 nM | 9 nM | 2000 nM | 100 nM | > 1000 nM | –
7 | COc1cc2c(Nc3ccc(Br)cc3F)ncnc2cc1OCCC1CCNCC1 | – | – | 40 nM | 2700 nM | – | 3000 nM | –
8 | COc1cc2c(Nc3ccc(Cl)cc3F)ncnc2cc1OC1CCN(C)CC1 | 1500 nM | – | – | 50000 nM | – | – | –
9 | COc1cc2/c(=N/c3ccc(Br)cc3F)nc[nH]c2cc1OCC1CCN(C)CC1 | – | – | – | – | – | – | SPB (Mus musculus): 96%; SPB (Rattus norvegicus): 90%
10 | COc1cc2c(Nc3c(F)cc(Br)cc3F)ncnc2cc1OCC1CCNCC1 | 800 nM | 70 nM | 15 nM | 1900 nM | 450 nM | 3000 nM | –
11 | COc1cc2c(Nc3ccc(Cl)cc3F)ncnc2cc1OCCN(C)c1ccncc1 | – | 200 nM | – | – | 300 nM | 5000 nM | concentration at 24 h [6]: 2000 nM; concentration at 6 h [7]: 4600 nM
12 | COc1cc2c(Nc3ccc(Br)cc3F)ncnc2cc1OCCC1CCN(C)CC1 | – | – | 6 nM | 2100 nM | – | 3000 nM | concentration at 24 h [11]: 2000 nM; concentration at 6 h [13]: 3000 nM
13 | COc1cc2c(Nc3ccc(Br)cc3F)ncnc2cc1OCCn1ccnn1 [ZD-4190 FREE BASE] | – | – | – | – | – | – | bioavailability [14]: > 80%; concentration at 24 h [15]: 200 nM; CL/F [16]: 8.33 mL/min/kg; fraction unbound [17]: 0.02; fraction unbound [18]: 0.05; solubility [19]: 0.7 µM (≈ 0.321 µg/mL); pKa [20]: 5.3; IC50 [21]: > 10000 nM; IC50 [22]: > 100000 nM; IC50 [23]: > 20000 nM; IC50 [24]: > 10000 nM; IC50 [25]: > 20000 nM; IC50 [26]: > 20000 nM; IC50 (Angiopoietin-1 receptor): > 100000 nM; concentration at 6 h [13]: 14000 nM; logD (physchem [9]): 4.6; bioavailability [27]: < 5%; half-life [28]: 1.1 h; half-life [29]: 1.3 h
14 | COCCOc1cc2ncnc(Nc3ccc(Cl)cc3F)c2cc1OC | – | 40 nM | – | – | 100 nM | 5000 nM | concentration at 24 h [6]: < 100 nM; concentration at 6 h [7]: 12000 nM
15 | COc1cc2c(Nc3ccc(Br)cc3F)ncnc2cc1OC[C@@H]1CCCN(C)C1 | 500 nM | 60 nM | 1 nM | 1800 nM | – | 10000 nM | concentration at 24 h [11]: 2500 nM; concentration at 6 h [13]: 5500 nM
16 | COc1cc2c(Nc3cc(O)c(Cl)cc3F)ncnc2cc1OCC1CCN(C)CC1.Cl | 20 nM | 3 nM | 8 nM | 900 nM | 100 nM | 500 nM | –
17 | COc1cc2c(Nc3ccc(Cl)cc3F)ncnc2cc1OCCC1CCN(C)CC1 | 500 nM | 70 nM | 55 nM | 4100 nM | 300 nM | 3000 nM | –
18 | COc1cc2c(Nc3ccc(C)cc3F)ncnc2cc1OCC1CCN(C)CC1 | 500 nM | 65 nM | 25 nM | 13500 nM | 1000 nM | > 5000 nM | –
19 | COc1cc2c(Nc3c(F)cc(Br)cc3F)ncnc2cc1OCC1CCN(C)CC1 | 500 nM | 100 nM | 10 nM | 1500 nM | 300 nM | > 1000 nM | –
20 | COc1cc2c(Nc3ccc(Cl)cc3F)ncnc2cc1OCC1CCNCC1.Cl | 1000 nM | 60 nM | 50 nM | 5000 nM | 300 nM | 5000 nM | –
21 | COc1cc2c(Nc3ccc(C)cc3F)ncnc2cc1OCC1CCNCC1 | 700 nM | 250 nM | 30 nM | 12300 nM | 500 nM | > 5000 nM | –

Continued, in another order:

Row | IC50 [1] | IC50 [2] | IC50 [3] | IC50 [4] | IC50 [5] | SMILES | IC50 (HUVEC) | also measured
22 | 200 nM | 8 nM | 30 nM | 4200 nM | – | COc1cc2c(Nc3ccc(Cl)cc3F)ncnc2cc1OCCCN1CCCC1.Cl | 5000 nM | –
23 | 650 nM | 30 nM | 8 nM | 2100 nM | 100 nM | COc1cc2c(Nc3ccc(Br)cc3F)ncnc2cc1OC/C=C/CN1CCCC1.Cl | 5000 nM | –
24 | 700 nM | 80 nM | 5 nM | 1800 nM | 100 nM | COc1cc2c(Nc3ccc(Cl)cc3F)ncnc2cc1OC[C@@H]1CCCN(C)C1 | 5000 nM | –
25 | 750 nM | 40 nM | 40 nM | 1900 nM | 90 nM | COc1cc2c(Nc3ccc(Cl)cc3F)ncnc2cc1OC/C=C/CN1CCCC1.Cl | 1000 nM | –
26 | 600 nM | 50 nM | 20 nM | 2100 nM | 75 nM | COc1cc2c(Nc3ccc(Cl)cc3F)ncnc2cc1OCCCN1CCN(C)CC1.Cl | 5000 nM | concentration at 24 h [11]: 3000 nM; solubility [8]: 60 µM; pKa [12]: 7.9; concentration at 6 h [13]: 5000 nM; logD (physchem [9]): 2.4
27 | 3900 nM | 500 nM | 230 nM | 19000 nM | 800 nM | COc1cc2c(Nc3ccc(C#N)cc3F)ncnc2cc1OC/C=C/CN1CCCC1 | 10000 nM | –
28 | 2000 nM | 50 nM | 15 nM | 4300 nM | – | COc1cc2c(Nc3ccc(Cl)cc3F)ncnc2cc1OCC1CCN(C)CC1.Cl | 5000 nM | –
29 | – | 300 nM | – | – | 400 nM | COc1cc2c(Nc3ccc(Cl)cc3F)ncnc2cc1OCCN1CCOCC1 | 5000 nM | concentration at 24 h [6]: 500 nM; concentration at 6 h [7]: 12000 nM
30 | 300 nM | 100 nM | 30 nM | 8000 nM | 200 nM | COc1cc2c(Nc3ccc(Cl)cc3F)ncnc2cc1OCCN1CCN(C)CC1 | 10000 nM | –
